Laboratory results reported in PubChem BioAssay (NCI).
Where “and” joins values, the source holds several entries; their conditions need not be identical. Equal entries are not always repeated.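 Exposure lasted 48 hours, with cells grown in 96-well plates and compounds tested at five concentrations. Here, GI50 denotes the concentration required for 50% inhibition of growth. TGI: concentration producing complete growth inhibition.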

How the values were obtained:
Assay in all cases: NCI tumour cell line growth inhibition, 48 h
DMS 273 small cell lung = test system: DMS 273 small cell lung
UACC-257 melanoma = test system: UACC-257 melanoma
DLD-1 colon = test system: DLD-1 colon
UO-31 renal = test system: UO-31 renal
786-0 renal = test system: 786-0 renal
SF-539 CNS = test system: SF-539 CNS
SF-268 CNS = test system: SF-268 CNS
SNB-78 CNS = test system: SNB-78 CNS
M19-MEL melanoma = test system: M19-MEL melanoma
NCI-H460 lung = test system: NCI-H460 lung
HS 578T breast = test system: HS 578T breast
T-47D breast = test system: T-47D breast

## O=[N+]([O-])c1cccc(C2ON2C2CCCCC2)c1 (stereo not given)
DMS 273 small cell lung
  TGI: 41.5 µM
UACC-257 melanoma
  TGI: 49.6 µM
DLD-1 colon
  TGI: 29.9 µM
UO-31 renal
  TGI: 49.7 µM
786-0 renal
  TGI: 31.2 µM
SF-539 CNS
  TGI: 46.3 µM
SF-268 CNS
  TGI: 51 µM
SNB-78 CNS
  TGI: > 100 µM
M19-MEL melanoma
  TGI: 39.9 µM
NCI-H460 lung
  TGI: 32.5 µM

## COC(=O)CCC(=O)CC(=O)C(=O)Nc1c(Cl)cc([N+](=O)[O-])cc1Cl
DMS 273 small cell lung
  TGI: > 100 µM
UACC-257 melanoma
  TGI: > 100 µM
DLD-1 colon
  TGI: > 100 µM
UO-31 renal
  TGI: > 100 µM
786-0 renal
  TGI: > 100 µM
SF-539 CNS
  TGI: > 100 µM
SF-268 CNS
  TGI: > 100 µM
SNB-78 CNS
  TGI: > 100 µM
M19-MEL melanoma
  TGI: > 100 µM
NCI-H460 lung
  TGI: > 100 µM

## CN(C)CCNC(=O)c1cccc2c1nc(-c1ccccc1)c1ccccc12
DMS 273 small cell lung
  TGI: 13.2 µM
UACC-257 melanoma
  TGI: 3.48 µM
DLD-1 colon
  TGI: 15.3 µM
UO-31 renal
  TGI: 6.17 µM
786-0 renal
  TGI: 16.6 µM
SF-539 CNS
  TGI: 8.02 µM
SF-268 CNS
  TGI: 18.5 µM
SNB-78 CNS
  TGI: 26.4 µM
M19-MEL melanoma
  TGI: 17.3 µM
NCI-H460 lung
  TGI: 13.3 µM

## CCCCCCCCCCCC1CCCC(C)N1 (stereo not given)
DMS 273 small cell lung
  TGI: 136 µM
HS 578T breast
  GI50: 8.6 µM
  TGI: 26.2 µM
UACC-257 melanoma
  GI50: 10.3 µM
  TGI: 24.4 µM and 119 µM
DLD-1 colon
  TGI: 83.4 µM
UO-31 renal
  GI50: 3.29 µM
  TGI: 16.4 µM and 105 µM
786-0 renal
  GI50: 13.7 µM
  TGI: 42.9 µM
SF-539 CNS
  GI50: 12.2 µM
  TGI: 24.8 µM and 141 µM
SF-268 CNS
  GI50: 11 µM
  TGI: 27.2 µM and 147 µM
SNB-78 CNS
  TGI: 174 µM
M19-MEL melanoma
  TGI: 130 µM
NCI-H460 lung
  GI50: 3.67 µM
  TGI: 12.5 µM and 118 µM
T-47D breast
  GI50: 2.16 µM
  TGI: 12.8 µM

## C1CCN(c2nc(=[N+]3CCCCC3)ss2)CC1
DMS 273 small cell lung
  TGI: > 100 µM
UACC-257 melanoma
  TGI: > 100 µM
DLD-1 colon
  TGI: > 100 µM
UO-31 renal
  TGI: > 100 µM
786-0 renal
  TGI: > 100 µM
SF-539 CNS
  TGI: > 100 µM
SF-268 CNS
  TGI: > 100 µM
SNB-78 CNS
  TGI: > 100 µM
M19-MEL melanoma
  TGI: > 100 µM
NCI-H460 lung
  TGI: > 100 µM

## O=C(CCC(=O)C(C(=O)c1ccccc1)c1ccccc1)Nc1cccc(C(F)(F)F)c1 (stereo not given)
DMS 273 small cell lung
  TGI: > 100 µM
UACC-257 melanoma
  TGI: > 100 µM
DLD-1 colon
  TGI: > 100 µM
UO-31 renal
  TGI: > 100 µM
786-0 renal
  TGI: > 100 µM
SF-539 CNS
  TGI: > 100 µM
SF-268 CNS
  TGI: > 100 µM
SNB-78 CNS
  TGI: > 100 µM
M19-MEL melanoma
  TGI: > 100 µM
NCI-H460 lung
  TGI: > 100 µM

## COc1cc2c3c(c1OC)-c1c(ccc4c1OCO4)CC3(C#N)N(C(=O)c1ccccc1)CC2 (stereo not given)
DMS 273 small cell lung
  TGI: > 100 µM
UACC-257 melanoma
  TGI: > 100 µM
DLD-1 colon
  TGI: > 100 µM
UO-31 renal
  TGI: > 100 µM
786-0 renal
  TGI: > 100 µM
SF-539 CNS
  TGI: > 100 µM
SF-268 CNS
  TGI: > 100 µM
SNB-78 CNS
  TGI: > 100 µM
M19-MEL melanoma
  TGI: > 100 µM
NCI-H460 lung
  TGI: > 100 µM

## CCc1cccc(C(C)C)c1N1C(=O)C(=O)C(c2nc3ccccc3s2)C(=O)C1=O
DMS 273 small cell lung
  TGI: > 50 µM
UACC-257 melanoma
  TGI: > 50 µM
DLD-1 colon
  TGI: > 50 µM
UO-31 renal
  TGI: > 50 µM
786-0 renal
  TGI: > 50 µM
SF-539 CNS
  TGI: > 50 µM
SF-268 CNS
  TGI: > 50 µM
SNB-78 CNS
  TGI: > 50 µM
M19-MEL melanoma
  TGI: > 50 µM
NCI-H460 lung
  TGI: > 50 µM

## CC1(C)Cc2cc(C(=O)O)c3c(c2C1=O)COCC3
DMS 273 small cell lung
  TGI: > 100 µM
UACC-257 melanoma
  TGI: > 100 µM
DLD-1 colon
  TGI: > 100 µM
UO-31 renal
  TGI: > 100 µM
786-0 renal
  TGI: > 100 µM
SF-539 CNS
  TGI: > 100 µM
SF-268 CNS
  TGI: > 100 µM
SNB-78 CNS
  TGI: > 100 µM
M19-MEL melanoma
  TGI: > 100 µM
NCI-H460 lung
  TGI: > 100 µM

## CCc1cccc(C(C)C)c1NC(=O)C(=O)C(CC(=O)Nc1ccc(Cl)c(Cl)c1)C(=O)OC (stereo not given)
DMS 273 small cell lung
  TGI: > 100 µM
UACC-257 melanoma
  TGI: > 100 µM
DLD-1 colon
  TGI: > 100 µM
UO-31 renal
  TGI: > 100 µM
786-0 renal
  TGI: > 100 µM
SF-539 CNS
  TGI: > 100 µM
SF-268 CNS
  TGI: > 100 µM
SNB-78 CNS
  TGI: > 100 µM
M19-MEL melanoma
  TGI: > 100 µM
NCI-H460 lung
  TGI: > 100 µM
